By IC50 is commonly meant the concentration that inhibits the measured activity by half. A higher IC50 goes with weaker potency.

The assay concerns the target Human LDHA (Homo sapiens (Human), UniProt P00338). Description: human LDHA primary biochemical assay (resazurin/diaphorase coupled, fluorescence). The following applies: LDHA inhibitory activity, activity level based on IC50 (Table 7). The source says: Test compounds were placed in a Greiner Bio-One (Monroe, N.C.) 1536-well black solid bottom assay plate. 200 millimolar (mM) Tris HCl, pH 7.4, 100 micromolar […] EDTA and 0.01% TWEEN-20™, final concentration, was used as the assay buffer. The LDHA reagent was 2 nanomolar (nM) Human LDHA (Meridian Life Science, Inc., Memphis, Tenn.), final concentration, in assay buffer.
For orientation: Resazurin is reduced to fluorescent resorufin, in cell work by metabolically active cells.
For the compound `CCc1cccc(-c2cc(-c3nn(-c4nc(C(=O)O)cs4)cc3Cc3ccc(S(N)(=O)=O)cc3)ccc2C)c1` [Compound 488, 2-(3-(3′-ethyl-6-methyl-[1,1′-biphenyl]-3-yl)-4-(4-sulfamoylbenzyl)-1H-pyrazol-1-yl)thiazole-4-carboxylic acid], the IC50 is 100 to 1000 nM.
`Cc1ccc(-c2nn(-c3nc(C(=O)O)cs3)cc2Cc2ccc(S(N)(=O)=O)cc2)cc1-c1cc(F)cc(F)c1` [Compound 489, 2-(3-(3′,5′-difluoro-6-methyl-[1,1′-biphenyl]-3-yl)-4-(4-sulfamoylbenzyl)-1H-pyrazol-1-yl)thiazole-4-carboxylic acid] returned an IC50 of 100 to 1000 nM.
As for `Cc1ccc(-c2nn(-c3nc(C(=O)O)cs3)cc2Cc2ccc(S(N)(=O)=O)cc2)cc1-c1ccncc1` [Compound 490, 2-(3-(4-methyl-3-(pyridin-4-yl)phenyl)-4-(4-sulfamoylbenzyl)-1H-pyrazol-1-yl)thiazole-4-carboxylic acid], the IC50 lay within 100 to 1000 nM.
Consider `Cc1ccc(-c2nn(-c3nc(C(=O)O)cs3)cc2Cc2ccc(S(N)(=O)=O)cc2)cc1-c1ccccc1` [Compound 491, 2-(3-(6-methyl-[1,1′-biphenyl]-3-yl)-4-(4-sulfamoylbenzyl)-1H-pyrazol-1-yl)thiazole-4-carboxylic acid], for which the IC50 is 100 to 1000 nM.
Compound `Cc1ccc(-c2nn(-c3nc(C(=O)O)cs3)cc2Cc2ccc(S(N)(=O)=O)cc2)cc1-c1ccc(F)c(F)c1` [Compound 492, 2-(3-(3′,4′-difluoro-6-methyl-[1,1′-biphenyl]-3-yl)-4-(4-sulfamoylbenzyl)-1H-pyrazol-1-yl)thiazole-4-carboxylic acid] showed a concentration for half-maximal inhibition (IC50) of 100 to 1000 nM.
Take `Cc1cc(-c2cc(-c3nn(-c4nc(C(=O)O)cs4)cc3Cc3ccc(S(N)(=O)=O)cc3)ccc2C)ccc1F` [Compound 493, 2-(3-(4′-fluoro-3′,6-dimethyl-[1,1′-biphenyl]-3-yl)-4-(4-sulfamoylbenzyl)-1H-pyrazol-1-yl)thiazole-4-carboxylic acid]: the IC50 was 100 to 1000 nM.
With `COc1ccc(-c2cc(-c3nn(-c4nc(C(=O)O)cs4)cc3Cc3ccc(S(N)(=O)=O)cc3)ccc2C)cc1F` [Compound 494, 2-(3-(3′-fluoro-4′-methoxy-6-methyl-[1,1′-biphenyl]-3-yl)-4-(4-sulfamoylbenzyl)-1H-pyrazol-1-yl)thiazole-4-carboxylic acid], the IC50 was 100 to 1000 nM.
`Cc1cc(C)cc(-c2cc(-c3nn(-c4nc(C(=O)O)cs4)cc3Cc3ccc(S(N)(=O)=O)cc3)ccc2C)c1` [Compound 495, 2-(4-(4-sulfamoylbenzyl)-3-(3′,5′,6-trimethyl-[1,1′-biphenyl]-3-yl)-1H-pyrazol-1-yl)thiazole-4-carboxylic acid] had an IC50 of 100 to 1000 nM.
`Cc1ccc(-c2cc(-c3nn(-c4nc(C(=O)O)cs4)cc3Cc3ccc(S(N)(=O)=O)cc3)ccc2C)cc1C#N` [Compound 496, 2-(3-(3′-cyano-4′,6-dimethyl-[1,1′-biphenyl]-3-yl)-4-(4-sulfamoylbenzyl)-1H-pyrazol-1-yl)thiazole-4-carboxylic acid] gave an IC50 of 100 to 1000 nM.
`Cc1ccc(-c2nn(-c3nc(C(=O)O)cs3)cc2Cc2ccc(S(N)(=O)=O)cc2)cc1-c1cccc(F)c1` [Compound 497, 2-(3-(3′-fluoro-6-methyl-[1,1′-biphenyl]-3-yl)-4-(4-sulfamoylbenzyl)-1H-pyrazol-1-yl)thiazole-4-carboxylic acid] gave an IC50 of 100 to 1000 nM.
Compound `Cc1ccc(-c2nn(-c3nc(C(=O)O)cs3)cc2Cc2ccc(S(N)(=O)=O)cc2)cc1-c1ccc(F)cc1` [Compound 498, 2-(3-(4′-fluoro-6-methyl-[1,1′-biphenyl]-3-yl)-4-(4-sulfamoylbenzyl)-1H-pyrazol-1-yl)thiazole-4-carboxylic acid] registered an IC50 of 100 to 1000 nM.
Next, `Cc1ccc(-c2nn(-c3nc(C(=O)O)cs3)c(C3CC3)c2Cc2ccc(S(N)(=O)=O)cc2)cc1-c1cccnc1` [Compound 499, 2-(5-cyclopropyl-3-(4-methyl-3-(pyridin-3-yl)phenyl)-4-(4-sulfamoylbenzyl)-1H-pyrazol-1-yl)thiazole-4-carboxylic acid]: under 100 nM.
In the case of `Cc1ccc(-c2nn(-c3nc(C(=O)O)cs3)c(C3CC3)c2Cc2ccc(S(N)(=O)=O)cc2)cc1-c1cccc(N)c1` [Compound 500, 2-(3-(3′-amino-6-methyl-[1,1′-biphenyl]-3-yl)-5-cyclopropyl-4-(4-sulfamoylbenzyl)-1H-pyrazol-1-yl)thiazole-4-carboxylic acid], the IC50 is under 100 nM.
`CCc1cccc(-c2cc(-c3nn(-c4nc(C(=O)O)cs4)cc3Cc3ccc(S(N)(=O)=O)cc3)ccc2F)c1` [Compound 513, 2-(3-(3′-ethyl-6-fluoro-[1,1′-biphenyl]-3-yl)-4-(4-sulfamoylbenzyl)-1H-pyrazol-1-yl)thiazole-4-carboxylic acid] returned an IC50 of 100 to 1000 nM.
In the case of `NS(=O)(=O)c1ccc(Cc2cn(-c3nc(C(=O)O)cs3)nc2-c2ccc(F)c(-c3cc(Cl)cc(Cl)c3)c2)cc1` [Compound 514, 2-(3-(3′,5′-dichloro-6-fluoro-[1,1′-biphenyl]-3-yl)-4-(4-sulfamoylbenzyl)-1H-pyrazol-1-yl)thiazole-4-carboxylic acid], the IC50 was in the range of 1000 to 57000 nM.
Next, `Cc1ccc(-c2cc(-c3nn(-c4nc(C(=O)O)cs4)cc3Cc3ccc(S(N)(=O)=O)cc3)ccc2F)cc1C` [Compound 516, 2-(3-(6-fluoro-3′,4′-dimethyl-[1,1′-biphenyl]-3-yl)-4-(4-sulfamoylbenzyl)-1H-pyrazol-1-yl)thiazole-4-carboxylic acid]: 100 to 1000 nM.
For `NS(=O)(=O)c1ccc(Cc2cn(-c3nc(C(=O)O)cs3)nc2-c2ccc(F)c(-c3ccc(F)c(F)c3)c2)cc1` [Compound 517, 2-(4-(4-sulfamoylbenzyl)-3-(3′,4′,6-trifluoro-[1,1′-biphenyl]-3-yl)-1H-pyrazol-1-yl)thiazole-4-carboxylic acid], the IC50 was 100 to 1000 nM.
With `COc1cc(-c2cc(-c3nn(-c4nc(C(=O)O)cs4)cc3Cc3ccc(S(N)(=O)=O)cc3)ccc2F)ccc1F` [Compound 518, 2-(3-(4′,6-difluoro-3′-methoxy-[1,1′-biphenyl]-3-yl)-4-(4-sulfamoylbenzyl)-1H-pyrazol-1-yl)thiazole-4-carboxylic acid], the IC50 was under 100 nM.
Next, `Cc1cccc(-c2cccc(-c3nn(-c4nc(C(=O)O)cs4)cc3Cc3ccc(S(N)(=O)=O)cc3)c2)c1` [Compound 519, 2-(3-(3′-methyl-[1,1′-biphenyl]-3-yl)-4-(4-sulfamoylbenzyl)-1H-pyrazol-1-yl)thiazole-4-carboxylic acid]: under 100 nM; `Cc1ccc(-c2cc(-c3nn(-c4nc(C(=O)O)cs4)cc3Cc3ccc(S(N)(=O)=O)cc3)ccc2F)cc1F` [Compound 520, 2-(3-(3′,6-difluoro-4′-methyl-[1,1′-biphenyl]-3-yl)-4-(4-sulfamoylbenzyl)-1H-pyrazol-1-yl)thiazole-4-carboxylic acid]: 100 to 1000 nM.
Turning to `COc1cccc(-c2cccc(-c3nn(-c4nc(C(=O)O)cs4)cc3Cc3ccc(S(N)(=O)=O)cc3)c2)c1` [Compound 521, 2-(3-(3′-methoxy-[1,1′-biphenyl]-3-yl)-4-(4-sulfamoylbenzyl)-1H-pyrazol-1-yl)thiazole-4-carboxylic acid], the IC50 was under 100 nM.
In turn, `NS(=O)(=O)c1ccc(Cc2cn(-c3nc(C(=O)O)cs3)nc2-c2cccc(-c3cccnc3)c2)cc1` [Compound 522, 2-(3-(3-(pyridin-3-yl)phenyl)-4-(4-sulfamoylbenzyl)-1H-pyrazol-1-yl)thiazole-4-carboxylic acid] gave an IC50 of 100 to 1000 nM.
Compound `Nc1cccc(-c2cccc(-c3nn(-c4nc(C(=O)O)cs4)cc3Cc3ccc(S(N)(=O)=O)cc3)c2)c1` [Compound 524, 2-(3-(3′-amino-[1,1′-biphenyl]-3-yl)-4-(4-sulfamoylbenzyl)-1H-pyrazol-1-yl)thiazole-4-carboxylic acid] registered an IC50 of 100 to 1000 nM.
As to `NS(=O)(=O)c1ccc(Cc2c(CC3CC3)nn(-c3nc(C(=O)O)cs3)c2-c2cc(F)cc(-c3cccc(F)c3)c2)cc1` [Compound 525, 4-((3-(cyclopropylmethyl)-5-(3′,5-difluoro-[1,1′-biphenyl]-3-yl)-1-(4-((oxo-l3-methyl)-l3-oxidanyl)thiazol-2-yl)-1H-pyrazol-4-yl)methyl)benzenesulfonamide], the IC50 was in the range of 1000 to 57000 nM.
As for `CC(C)=Cc1cc(-c2nn(-c3nc(C(=O)O)cs3)c(CC3CC3)c2Cc2ccc(S(N)(=O)=O)c(F)c2)ccc1F` [Compound 530, 2-(5-(cyclopropylmethyl)-3-(4-fluoro-3-(2-methylprop-1-en-1-yl)phenyl)-4-(3-fluoro-4-sulfamoylbenzyl)-1H-pyrazol-1-yl)thiazole-4-carboxylic acid], the IC50 is under 100 nM.
Next, `NS(=O)(=O)c1ccc(Cc2c(-c3ccc(F)c(/C=C/C4CC4)c3)nn(-c3nc(C(=O)O)cs3)c2CC2CC2)cc1F` [Compound 532, (E)-2-(5-(cyclopropylmethyl)-3-(3-(2-cyclopropylvinyl)-4-fluorophenyl)-4-(3-fluoro-4-sulfamoylbenzyl)-1H-pyrazol-1-yl)thiazole-4-carboxylic acid]: under 100 nM; `C/C=C/c1cc(-c2nn(-c3nc(C(=O)O)cs3)c(CC3CC3)c2Cc2ccc(S(N)(=O)=O)c(F)c2)ccc1F` [Compound 533, (E)-2-(5-(cyclopropylmethyl)-3-(4-fluoro-3-(prop-1-en-1-yl)phenyl)-4-(3-fluoro-4-sulfamoylbenzyl)-1H-pyrazol-1-yl)thiazole-4-carboxylic acid]: under 100 nM; `C=C(C)c1cc(-c2nn(-c3nc(C(=O)O)cs3)c(CC3CC3)c2Cc2ccc(S(N)(=O)=O)c(F)c2)ccc1F` [Compound 534, 2-(5-(cyclopropylmethyl)-3-(4-fluoro-3-(prop-1-en-2-yl)phenyl)-4-(3-fluoro-4-sulfamoylbenzyl)-1H-pyrazol-1-yl)thiazole-4-carboxylic acid]: under 100 nM.
